Results from publication PMC9311641, “Antitubercular, Cytotoxicity, and Computational Target Validation of Dihydroquinazolinone Derivatives” (Antibiotics, 2022).
In brackets after ≈: the same amount, converted by molar mass. Several values for one entry are separate records, joined by “and”; a condition that tells them apart may be missing. Identical values can stand only once.

System: MDR strains of Mycobacterium tuberculosis
Assay: Whole-cell anti-TB MIC, Resazurin Microplate Assay (REMA)
Assay type: cell-based
Conditions: MDR MTB strains, REMA

Q: With O=C1NC(c2ccc(F)cc2)Nc2ccccc21 (centres unmarked) [Compound 3j] as the compound, how does the “Level of Activity (MIC), MDR” value read?
A: No activity

Q: With O=C1NC(c2ccc(OC(F)(F)F)cc2)Nc2ccccc21 (centres unmarked) [Compound 3d] as the compound, how does the “Level of Activity (MIC), MDR” value read?
A: No activity

Q: For CN(C)c1ccc(C2NC(=O)c3ccccc3N2)cc1 (centres unmarked) [Compound 3h], which “Level of Activity (MIC), MDR” value is on record?
A: No activity

Q: For O=C1NC(c2cccc([N+](=O)[O-])c2)Nc2ccccc21 (centres unmarked) [Compound 3i], which “Level of Activity (MIC), MDR” value is on record?
A: No activity

Q: For N#Cc1ccc(C2NC(=O)c3ccccc3N2)cc1 (centres unmarked) [Compound 3b], which “Level of Activity (MIC), MDR” value is on record?
A: No activity

Q: Which “Level of Activity (MIC), MDR” value does the source give for COc1ccc(C2NC(=O)c3ccccc3N2)cc1OC (centres unmarked) [Compound 3g] here?
A: No activity

Q: With O=C1NC(c2ccc(Cl)cc2)Nc2ccccc21 (centres unmarked) [Compound 3f] as the compound, how does the “Level of Activity (MIC), MDR” value read?
A: No activity

Q: With O=C1NC(c2cccc(I)c2)Nc2ccccc21 (centres unmarked) [Compound 3e] as the compound, how does the “Level of Activity (MIC), MDR” value read?
A: No activity

Same assay, conditions: Mycobacterium tuberculosis, read-out: Level of Activity (MIC), MDR

Q: For COc1ccc(C2NC(=O)c3ccccc3N2)cc1 (centres unmarked) [Compound 3a], which MIC is on record?
A: > 128 µg/mL

Q: Which MIC does the source give for O=C1NC(c2c[nH]cn2)Nc2ccccc21 (centres unmarked) [Compound 3k] here?
A: 16 µg/mL (≈ 74.7 µM)

Q: With COc1cc([N+](=O)[O-])ccc1C1NC(=O)c2ccccc2N1 (centres unmarked) [Compound 3m] as the compound, how does the MIC read?
A: > 64 µg/mL

Q: With O=C1NC(c2cccc(O)c2)Nc2ccccc21 (centres unmarked) [Compound 3c] as the compound, how does the MIC read?
A: > 32 µg/mL

Q: With O=C1NC(c2cc(Br)ccc2F)Nc2ccccc21 (centres unmarked) [Compound 3l, 2-(5-bromo-2-fluorophenyl)-2,3-dihydroquinazolin-4(1H)-one] as the compound, how does the MIC read?
A: > 64 µg/mL

System: Mycobacterium tuberculosis H37Rv (ATCC 25177)
Assay: as above
Assay type: cell-based
Conditions: MTB H37Rv

Q: Which MIC against susceptible H37Rv M. tuberculosis strain does the source give for O=C1NC(c2c[nH]cn2)Nc2ccccc21 (centres unmarked) [Compound 3k] here?
A: 4 µg/mL (≈ 18.7 µM)

Q: With COc1cc([N+](=O)[O-])ccc1C1NC(=O)c2ccccc2N1 (centres unmarked) [Compound 3m] as the compound, how does the MIC against susceptible H37Rv M. tuberculosis strain read?
A: 2 µg/mL (≈ 6.68 µM)

Q: For O=C1NC(c2cc(Br)ccc2F)Nc2ccccc21 (centres unmarked) [Compound 3l, 2-(5-bromo-2-fluorophenyl)-2,3-dihydroquinazolin-4(1H)-one], which MIC against susceptible H37Rv M. tuberculosis strain is on record?
A: 2 µg/mL (≈ 6.23 µM)

Same assay, conditions: Mycobacterium tuberculosis; MTB H37Rv, REMA; read-out: Level of Activity (MIC), Susceptible (H37Rv)

Q: Which MIC does the source give for COc1ccc(C2NC(=O)c3ccccc3N2)cc1 (centres unmarked) [Compound 3a] here?
A: 64 µg/mL (≈ 252 µM)

Q: With O=C1NC(c2c[nH]cn2)Nc2ccccc21 (centres unmarked) [Compound 3k] as the compound, how does the MIC read?
A: 4 µg/mL (≈ 18.7 µM)

Q: Which MIC does the source give for O=C1NC(c2ccc(F)cc2)Nc2ccccc21 (centres unmarked) [Compound 3j] here?
A: > 64 µg/mL

Q: For COc1cc([N+](=O)[O-])ccc1C1NC(=O)c2ccccc2N1 (centres unmarked) [Compound 3m], which MIC is on record?
A: 2 µg/mL (≈ 6.68 µM)

Q: Which MIC does the source give for O=C1NC(c2cccc(O)c2)Nc2ccccc21 (centres unmarked) [Compound 3c] here?
A: 8 µg/mL (≈ 33.3 µM)

Q: For O=C1NC(c2ccc(OC(F)(F)F)cc2)Nc2ccccc21 (centres unmarked) [Compound 3d], which MIC is on record?
A: > 64 µg/mL

Q: Which MIC does the source give for CN(C)c1ccc(C2NC(=O)c3ccccc3N2)cc1 (centres unmarked) [Compound 3h] here?
A: > 128 µg/mL

Q: Which MIC does the source give for O=C1NC(c2cccc([N+](=O)[O-])c2)Nc2ccccc21 (centres unmarked) [Compound 3i] here?
A: > 64 µg/mL

Q: With N#Cc1ccc(C2NC(=O)c3ccccc3N2)cc1 (centres unmarked) [Compound 3b] as the compound, how does the MIC read?
A: > 64 µg/mL

Q: For COc1ccc(C2NC(=O)c3ccccc3N2)cc1OC (centres unmarked) [Compound 3g], which MIC is on record?
A: 64 µg/mL (≈ 225 µM)

Q: For O=C1NC(c2cc(Br)ccc2F)Nc2ccccc21 (centres unmarked) [Compound 3l, 2-(5-bromo-2-fluorophenyl)-2,3-dihydroquinazolin-4(1H)-one], which MIC is on record?
A: 2 µg/mL (≈ 6.23 µM)

Q: Which MIC does the source give for O=C1NC(c2ccc(Cl)cc2)Nc2ccccc21 (centres unmarked) [Compound 3f] here?
A: > 128 µg/mL

Q: With O=C1NC(c2cccc(I)c2)Nc2ccccc21 (centres unmarked) [Compound 3e] as the compound, how does the MIC read?
A: 128 µg/mL (≈ 366 µM)

System: not listed separately
Assay: MTT cytotoxicity assay
Assay type: cell-based
Conditions: human, CCD-1064SK normal human skin fibroblast cells, mean ± SD of three replicates
Protocol: (§1) Fibroblast cells were cultured in Iscove’s Modified Dulbecco’s Medium (Euro Clone, Italy) as recommended by ATCC. The media was supplemented with 10% heat-inactivated fetal bovine serum (FBS) (Ebsdorfergrund, Germany), 1% of 2 mM L-glutamine, 100 U/mL penicillin, and 100 µg/mL streptomycin. According to the cells’ growth profile, fibroblast-seeding density was 1 × 10^5 cell/well. Cell viability was determined by trypan blue exclusion using a hemocytometer.
(§2) The MTT colorimetric assay was used to assess the effect of the synthesized compounds on the viability of the fibroblast cell lines. […] A volume of 10 mL of the culture media was added, and the cell suspension was centrifuged at 1000 rpm for 10 min. The pellets were resuspended in a 10 mL medium to make a single-cell suspension. […] The cell suspension was diluted to give the optimal seeding density, and 100 µL of the cell suspension was plated in a 96-well plate. Cells were cultured at 37 °C in a humidified atmosphere of 5% CO2. After 24 h incubation, the cells were treated with 100 µM of the synthesized compounds (diluted in culture media to yield the required concentration) and then incubated for 72 h. At the end of the exposure time, 15 µL of MTT stock solution (5 mg/mL in sterile PBS, pH 7.4) (Promega, Madison, WI, USA) was added to each well and incubated for 3 h. After that, 100 µL of solubilizing stop solution was added to each well to solubilize the dark violet formazan crystals. The optical densities at 570 nm were then measured using a micro-plate reader (Biotek, Winooski, VT, USA), and the percentage of cell viability was calculated with respect to a control corresponding to untreated cells.

Q: For O=C1NC(c2ccc(F)cc2)Nc2ccccc21 (centres unmarked) [Compound 3j], which cytotoxicity at 72 h, 100 µM is on record?
A: 44.1 ± 11.5%

Q: Which cytotoxicity at 72 h, 100 µM does the source give for COc1cc([N+](=O)[O-])ccc1C1NC(=O)c2ccccc2N1 (centres unmarked) [Compound 3m] here?
A: 31%

Q: Which cytotoxicity at 72 h, 100 µM does the source give for O=C1NC(c2cccc(O)c2)Nc2ccccc21 (centres unmarked) [Compound 3c] here?
A: 58.5 ± 1.1%

Q: For O=C1NC(c2ccc(OC(F)(F)F)cc2)Nc2ccccc21 (centres unmarked) [Compound 3d], which cytotoxicity at 72 h, 100 µM is on record?
A: 47.6 ± 1.6%

Q: For CN(C)c1ccc(C2NC(=O)c3ccccc3N2)cc1 (centres unmarked) [Compound 3h], which cytotoxicity at 72 h, 100 µM is on record?
A: 54.6 ± 2.8%

Q: Which cytotoxicity at 72 h, 100 µM does the source give for O=C1NC(c2cccc([N+](=O)[O-])c2)Nc2ccccc21 (centres unmarked) [Compound 3i] here?
A: 24.1 ± 3.9%

Q: Which cytotoxicity at 72 h, 100 µM does the source give for N#Cc1ccc(C2NC(=O)c3ccccc3N2)cc1 (centres unmarked) [Compound 3b] here?
A: 19.5 ± 5%

Q: For COc1ccc(C2NC(=O)c3ccccc3N2)cc1OC (centres unmarked) [Compound 3g], which cytotoxicity at 72 h, 100 µM is on record?
A: 32.5 ± 11%

Q: Which cytotoxicity at 72 h, 100 µM does the source give for O=C1NC(c2cc(Br)ccc2F)Nc2ccccc21 (centres unmarked) [Compound 3l, 2-(5-bromo-2-fluorophenyl)-2,3-dihydroquinazolin-4(1H)-one] here?
A: 36%

Q: For O=C1NC(c2ccc(Cl)cc2)Nc2ccccc21 (centres unmarked) [Compound 3f], which cytotoxicity at 72 h, 100 µM is on record?
A: 57.6 ± 3.7%

Q: With O=C1NC(c2cccc(I)c2)Nc2ccccc21 (centres unmarked) [Compound 3e] as the compound, how does the cytotoxicity at 72 h, 100 µM read?
A: 72 ± 8.3%

Same assay, conditions: normal human fibroblast cells, mean ± SD of three replicates

Q: With COc1ccc(C2NC(=O)c3ccccc3N2)cc1 (centres unmarked) [Compound 3a] as the compound, how does the cytotoxicity at 72 h, 100 µM read?
A: 28.8 ± 0.6%

Q: For O=C1NC(c2c[nH]cn2)Nc2ccccc21 (centres unmarked) [Compound 3k], which cytotoxicity at 72 h, 100 µM is on record?
A: 19.2 ± 4.9%

System: normal human skin fibroblast cells (CCD-1064SK)
Assay: MTT cytotoxicity assay
Assay type: cell-based
Conditions: 72 h, mean ± SD of three replicates
Protocol: as §1, §2

Q: For COc1cc([N+](=O)[O-])ccc1C1NC(=O)c2ccccc2N1 (centres unmarked) [Compound 3m], which “Cytotoxicity (%) at 100 µM” value is on record?
A: 30% and 30.9 ± 8.8%

Q: For O=C1NC(c2cc(Br)ccc2F)Nc2ccccc21 (centres unmarked) [Compound 3l, 2-(5-bromo-2-fluorophenyl)-2,3-dihydroquinazolin-4(1H)-one], which “Cytotoxicity (%) at 100 µM” value is on record?
A: 36.3 ± 4.2%
